Measurements published in PubChem BioAssay (NCI).
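All cell lines were grown in 96-well plates and treated with compound for 48 hours. TGI: total growth inhibition.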

Assays:
Assay in all cases: NCI anticancer screen, dose series, 48 h
CAKI-1 renal = tested on: CAKI-1 renal
NCI-H226 lung = tested on: NCI-H226 lung
MCF7 breast = tested on: MCF7 breast
K-562 leukemia = tested on: K-562 leukemia
SNB-75 CNS = tested on: SNB-75 CNS
A498 renal = tested on: A498 renal
RXF 393 renal = tested on: RXF 393 renal
786-0 renal = tested on: 786-0 renal
OVCAR-3 ovarian = tested on: OVCAR-3 ovarian
SK-MEL-28 melanoma = tested on: SK-MEL-28 melanoma

Row | SMILES | TGI (CAKI-1 renal) | TGI (NCI-H226 lung) | TGI (MCF7 breast) | TGI (K-562 leukemia) | TGI (SNB-75 CNS) | TGI (A498 renal) | TGI (RXF 393 renal) | TGI (786-0 renal) | TGI (OVCAR-3 ovarian) | TGI (SK-MEL-28 melanoma)
1 | NC(=O)CN1C=CCC(C(N)=O)=C1 | > 100 µM | > 100 µM | > 100 µM | > 100 µM | > 100 µM | > 100 µM | > 100 µM | > 100 µM | > 100 µM | –
2 | Cc1c([C@H](C)[C@@H]2NC[C@@H](C)C[C@H]2O)ccc2c1C[C@H]1[C@H]2CC=C2C[C@@H](O)CC[C@@]21C | > 100 µM | 38.1 µM | 31.5 µM | 40.6 µM | 51.7 µM | 33.6 µM | 48.2 µM | 37.9 µM | 41.5 µM | 37.5 µM
3 | Cc1nc(Nc2ccccc2Cl)sc1C(=O)CC(=O)C(N)=O | > 100 µM | > 100 µM | > 100 µM | > 100 µM | 92.2 µM | 66.7 µM | > 100 µM | > 100 µM | > 100 µM | –
4 | COC1=CC(=O)N(C)C(O)C1(C#N)OC1OC(CO)C(O)C(O)C1O (stereo not drawn) | > 100 µM | > 100 µM | > 100 µM | > 10 µM | > 100 µM | > 100 µM | – | > 100 µM | > 100 µM | > 100 µM
5 | COc1ccccc1NC(=O)CC(=O)NN | > 100 µM | > 100 µM | > 100 µM | > 100 µM | > 100 µM | > 100 µM | > 100 µM | > 100 µM | > 100 µM | > 100 µM
6 | CCNc1cc2c3c(c1)CCN3CCC2 | > 10 µM | > 10 µM | > 10 µM | 5.05 µM | > 10 µM | > 10 µM | > 10 µM | > 10 µM | > 10 µM | > 10 µM
7 | C=C1CC(C)(c2cccc(Nc3nc4ccccc4c4occc34)c2)OC1=O (stereo not drawn) | 16.7 µM | 4.54 µM | 16.4 µM | – | 18.3 µM | 32.1 µM | 6.02 µM | 3.08 µM | 17.5 µM | 26.8 µM
8 | O=c1[nH]nc(Cc2ccc(Cl)cc2)n1/N=C/c1ccc([N+](=O)[O-])o1 | > 39 µM | 43.3 µM | > 36.8 µM | > 31 µM | 31.1 µM | 14.1 µM | 4.8 µM | 11.1 µM | 25.9 µM | > 21.9 µM
9 | Cc1ccccc1NC(=O)CC(=O)NNC(Sc1ccccc1)c1cc(N=Nc2ccc(Br)cc2)ccc1O (stereo not drawn) | > 10 µM | > 10 µM | > 10 µM | 7.56 µM | > 10 µM | 7.96 µM | > 10 µM | > 10 µM | 4.91 µM | > 10 µM
10 | CC1CCC2(OC1)OC1C(O)C3C4CCC5CC(OC6OC(CO)C(OC7OC(CO)C(O)C(OC8OCC(O)C(O)C8O)C7OC7OC(CO)C(O)C(OC8OC(CO)C(O)C(O)C8O)C7O)C(O)C6O)C(O)CC5(C)C4CCC3(C)C1C2C (stereo not drawn) | 2.68 µM | 3.33 µM | 4.78 µM | > 100 µM | 7.76 µM | 46.6 µM | – | 2.96 µM | 3.32 µM | > 100 µM
11 | CCOC(=O)Nc1ccc(S(=O)(=O)Nn2cnnc2)cc1 | > 100 µM | – | > 100 µM | 77.9 µM | – | 96.2 µM | > 100 µM | > 100 µM | 77.4 µM | > 100 µM
